Among the test systems are ML-2; MV4-11; CMK; CMS; M07e; CHRF288-11; MOLM-13; U937.
Set-up in all cases: species or system AML cell lines (8); Primary HTS, single concentration about 10 uM, Cell Titer Glo viability; log10 luminescence, per cent inhibition relative to cycloheximide control
What all share (conditions): 72 h, relative to cycloheximide control, log10 luminescence, inhibitor

Structures can show the parent of a compound that is named as a salt. Where two headings read alike, the source gives them in different places.

`Cc1ccccc1N1CCN(CCc2nnc3n2CCCC3)CC1` [SJ000565164-2, DAPIPRAZOLE HYDROCHLORIDE]: the ML-2 %inh with ML-2 (ML-2 %inh, 10 µM) came out at 1.742%. The MV4-11 %inh in the assay with MV4-11 (MV4-11 %inh, 10 µM) was 0.3008%. Also, the CMK %inh in the assay with CMK (CMK %inh, 10 µM) is -2.237%. The CMS %inh with CMS (CMS %inh, 10 µM) is on record as -0.5071%. In addition, the M07e %inh in the assay on M07e (M07e %inh, 10 µM) came out at 0.4169%. Moreover, in the assay with CHRF288-11 (CHRF288-11 %inh, 10 µM), the CHRF288-11 %inh came to 1.908%. Further, in the assay with MOLM-13 (MOLM-13 %inh, 10 µM), the MOLM-13 %inh was 3.696%. For the same molecule, in the assay with U937 (U937 %inh, 10 µM), the U937 %inh is reported as -1.057%.
Take `CN(CCCCCCCCCCN(C)C(=O)Oc1cccc([N+](C)(C)C)c1)C(=O)Oc1cccc([N+](C)(C)C)c1` [SJ000287334-2, DEMECARIUM BROMIDE]: the ML-2 %inh in the assay on ML-2 (ML-2 %inh, 10 µM) came out at 3.342%. Also, the MV4-11 %inh in the assay on MV4-11 (MV4-11 %inh, 10 µM) is 26.64%. Also, the CMK %inh in the assay with CMK (CMK %inh, 10 µM) was 0.3844%. Besides, the CMS %inh with CMS (CMS %inh, 10 µM) is recorded as 0.249%. Besides, the M07e %inh in the assay with M07e (M07e %inh, 10 µM) is recorded as 6.779%. In addition, in the assay on CHRF288-11 (CHRF288-11 %inh, 10 µM), the CHRF288-11 %inh came out at 5.292%. The MOLM-13 %inh in the assay with MOLM-13 (MOLM-13 %inh, 10 µM) worked out at 14.75%. Moreover, the U937 %inh in the assay with U937 (U937 %inh, 10 µM) was 24.11%.
On to `COC(=O)CCCC1=CC2=CC(=O)C(C)(OC(=O)c3cccs3)C(=O)C2=CN1C1CCCCC1` (centres unmarked) [SJ000579837-1], for which the ML-2 %inh in the assay with ML-2 is 1.343%. Further, in the assay with MV4-11, the MV4-11 %inh is 0.3457%. Besides, in the assay with CMK, the CMK %inh amounted to 6.006%. Moreover, the CMS %inh in the assay with CMS is reported as -0.4009%. The M07e %inh with M07e is reported as -0.3619%. Also, the CHRF288-11 %inh in the assay on CHRF288-11 was 2.103%. In addition, the MOLM-13 %inh in the assay on MOLM-13 is reported as 2.949%. In addition, the U937 %inh in the assay with U937 was 1.516%.
Consider `NC(N)=NCCS[C@@H](CC(=O)O)C(=O)O` [SJ000772425-1, GEMSA], for which the ML-2 %inh with ML-2 is 0.5506%. Besides, the MV4-11 %inh with MV4-11 turned out to be 3.627%. The CMK %inh in the assay with CMK is given as -1.464%. The CMS %inh with CMS is -0.9686%. In addition, the M07e %inh in the assay on M07e came out at 1.501%. Also, the CHRF288-11 %inh in the assay on CHRF288-11 is on record as -3.397%. For the same molecule, in the assay on MOLM-13, the MOLM-13 %inh amounted to 0.138%. For the same molecule, in the assay with U937, the U937 %inh came to 0.2934%.
`C#C[C@]1(O)CC[C@H]2[C@@H]3CCC4=CCCC[C@@H]4[C@H]3C(=C)C[C@@]21CC` [SJ000565174-1, DESOGESTREL]: the ML-2 %inh with ML-2 is 3.09%. Moreover, the MV4-11 %inh in the assay with MV4-11 was 4.001%. In addition, in the assay on CMK, the CMK %inh is on record as 2.427%. Moreover, the CMS %inh with CMS is given as 2.249%. Further, the M07e %inh in the assay on M07e was determined as 3.523%. In the assay on CHRF288-11, the CHRF288-11 %inh is given as 1.152%. The MOLM-13 %inh with MOLM-13 came to 0.3348%. Besides, in the assay with U937, the U937 %inh is recorded as 2.771%.
For the molecule `O=C1NC(=NCc2c(Cl)cccc2Cl)S/C1=C\c1ccc2ncccc2c1` [SJ000581049-1], in the assay on ML-2, the ML-2 %inh was determined as 1.063%. Also, in the assay on MV4-11, the MV4-11 %inh is recorded as -1.821%. Moreover, the CMK %inh in the assay on CMK is listed as -7.089%. The CMS %inh in the assay on CMS turned out to be 2.314%. In addition, the M07e %inh in the assay with M07e worked out at 1.964%. In addition, the CHRF288-11 %inh with CHRF288-11 is on record as -0.3937%. In the assay on MOLM-13, the MOLM-13 %inh worked out at 5.37%. In addition, in the assay on U937, the U937 %inh was 5.41%.
With `CS(=O)(=O)Nc1cccc(-c2ccc3c(NC(=O)C4CC4)n[nH]c3c2)c1` [SJ000573187-1, VB100064-178A3], the ML-2 %inh with ML-2 is given as 56.77%. The MV4-11 %inh with MV4-11 came out at 73.57%. In addition, in the assay on CMK, the CMK %inh amounted to 72.59%. The CMS %inh in the assay on CMS is listed as 0.4745%. Besides, the M07e %inh with M07e worked out at 29.33%. In the assay on CHRF288-11, the CHRF288-11 %inh stood at 25.27%. Besides, the MOLM-13 %inh in the assay with MOLM-13 was determined as 75.64%. For the same molecule, in the assay with U937, the U937 %inh amounted to 80.28%.
With `CN(C)c1cc2c(Nc3ccc4nc(Cc5ccccc5)[nH]c4c3)ncnc2cn1` [SJ000573096-1, R142/81/1], the ML-2 %inh in the assay with ML-2 is given as -0.4937%. In the assay on MV4-11, the MV4-11 %inh is recorded as 3.394%. Further, in the assay with CMK, the CMK %inh is given as 4.629%. In addition, the CMS %inh in the assay with CMS came to 0.4943%. In addition, the M07e %inh with M07e is reported as -6.495%. In addition, the CHRF288-11 %inh with CHRF288-11 is -0.8109%. For the same molecule, the MOLM-13 %inh in the assay with MOLM-13 is listed as 19.45%. Besides, the U937 %inh with U937 is reported as -0.02909%.
On to `COc1cc[nH]c1/C=C1\C(=O)Nc2ccc(F)c(C#C[C@@H](O)[C@@H](N)[C@@H](C)O)c21` [SJ000581159-1], for which the ML-2 %inh in the assay with ML-2 was 60.99%. In addition, the MV4-11 %inh in the assay with MV4-11 was determined as 92.6%. In addition, in the assay with CMK, the CMK %inh is recorded as 112.6%. Besides, the CMS %inh in the assay with CMS is 97.96%. The M07e %inh in the assay with M07e is 87.08%. Besides, the CHRF288-11 %inh with CHRF288-11 was found to be 61.95%. Further, the MOLM-13 %inh in the assay with MOLM-13 is reported as 95.78%. Further, the U937 %inh with U937 stood at 83.42%.
With `Cn1cc(C2=C(c3cn(C)c4c([N+](=O)[O-])cccc34)C(=O)NC2=O)c2ccccc21` [SJ000581096-1], the ML-2 %inh in the assay on ML-2 is given as -1.675%. In the assay on MV4-11, the MV4-11 %inh worked out at 1.039%. In the assay on CMK, the CMK %inh is reported as 1.442%. For the same molecule, the CMS %inh with CMS is given as -0.5679%. Moreover, the M07e %inh in the assay on M07e was determined as 3.87%. Moreover, the CHRF288-11 %inh in the assay with CHRF288-11 is -0.1815%. For the same molecule, the MOLM-13 %inh in the assay with MOLM-13 is -1.995%. Besides, the U937 %inh in the assay with U937 is recorded as -1.424%.
Take `Oc1cccc(-c2nc(-c3ccccc3)[nH]c2-c2ccncc2)c1` [SJ000573176-1, KH49127-012A1]: in the assay with ML-2, the ML-2 %inh is on record as 2.359%. For the same molecule, in the assay on MV4-11, the MV4-11 %inh is on record as 3.826%. The CMK %inh in the assay with CMK was determined as 4.668%. For the same molecule, in the assay on CMS, the CMS %inh is given as 5.24%. The M07e %inh in the assay with M07e is given as 1.15%. Also, the CHRF288-11 %inh with CHRF288-11 is 2.324%. The MOLM-13 %inh with MOLM-13 worked out at 8.153%. Moreover, the U937 %inh with U937 is listed as 2.636%.
In the case of `COc1cc(N2CCN(C(C)C)CC2)ccc1Nc1nc(Nc2ccc(F)cc2C(=O)NC[C@@H](O)CO)c2cc[nH]c2n1` [SJ000573301-1, U23662/84/1], the ML-2 %inh in the assay on ML-2 worked out at 23.23%. Also, the MV4-11 %inh with MV4-11 is reported as 49.16%. Further, the CMK %inh with CMK was -2.061%. In addition, the CMS %inh in the assay with CMS is -0.165%. In addition, the M07e %inh in the assay with M07e turned out to be 18.85%. In the assay with CHRF288-11, the CHRF288-11 %inh is recorded as 7.394%. The MOLM-13 %inh in the assay with MOLM-13 is reported as 61.15%. For the same molecule, the U937 %inh with U937 is listed as 47.45%.
On to `Nc1nc(-c2ccc(F)cc2)c(-c2ccc3ncccc3n2)s1` [SJ000573357-1, R5931/120/1], for which, in the assay with ML-2, the ML-2 %inh is on record as -0.2788%. Besides, the MV4-11 %inh with MV4-11 is -0.2605%. Moreover, the CMK %inh in the assay with CMK is recorded as -0.6603%. In addition, the CMS %inh with CMS was 0.9588%. Besides, the M07e %inh in the assay with M07e is recorded as 0.3459%. In addition, in the assay with CHRF288-11, the CHRF288-11 %inh was determined as 7.658%. Moreover, the MOLM-13 %inh with MOLM-13 came out at 3.49%. Moreover, the U937 %inh in the assay with U937 was found to be 3.577%.
As to `C#C[C@]1(O)CC[C@H]2[C@@H]3CCC4=Cc5oncc5C[C@]4(C)[C@H]3CC[C@@]21C` [SJ000285723-7, DANAZOL], the ML-2 %inh in the assay with ML-2 stood at 0.4162%. For the same molecule, the MV4-11 %inh with MV4-11 came to 3.859%. In addition, in the assay with CMK, the CMK %inh is -0.5732%. The CMS %inh in the assay with CMS is on record as -0.3914%. In addition, the M07e %inh in the assay with M07e came to 0.05908%. Moreover, the CHRF288-11 %inh in the assay with CHRF288-11 turned out to be 3.76%. For the same molecule, the MOLM-13 %inh with MOLM-13 came to 13.86%. Also, the U937 %inh in the assay with U937 worked out at 4.655%.
`Nc1nccc(-c2c(-c3ccc(F)cc3)ncn2C2CCNCC2)n1` [SJ000573168-1, JB-19127-269D | LD19161-244A1]: the ML-2 %inh with ML-2 (ML-2 %inh, 10 µM) is given as 22.46%. Besides, the MV4-11 %inh with MV4-11 (MV4-11 %inh, 10 µM) is on record as 77.89%. In addition, the CMK %inh in the assay on CMK (CMK %inh, 10 µM) is given as 44.14%. Further, the CMS %inh in the assay on CMS (CMS %inh, 10 µM) was found to be 7.951%. In addition, the M07e %inh in the assay on M07e (M07e %inh, 10 µM) is 19.95%. Besides, the CHRF288-11 %inh in the assay on CHRF288-11 (CHRF288-11 %inh, 10 µM) amounted to 34.51%. The MOLM-13 %inh with MOLM-13 (MOLM-13 %inh, 10 µM) is on record as 64.89%. Besides, the U937 %inh in the assay on U937 (U937 %inh, 10 µM) is reported as 27.96%.
For the molecule `Cn1c(=O)c(Oc2ccc(F)cc2F)cc2cnc(N[C@H]3CCOC3)nc21` [SJ000581121-1], the ML-2 %inh in the assay on ML-2 is given as 0.08921%. In the assay on MV4-11, the MV4-11 %inh came out at 2.632%. In addition, the CMK %inh in the assay on CMK worked out at 3.547%. The CMS %inh in the assay with CMS turned out to be 4.412%. Besides, the M07e %inh in the assay with M07e is listed as 5.749%. Moreover, the CHRF288-11 %inh in the assay with CHRF288-11 was -0.8909%. The MOLM-13 %inh in the assay with MOLM-13 amounted to 1.492%. Further, the U937 %inh in the assay on U937 was determined as 1.362%.

For the origin of these results see paper PMC6522510 (Nature Communications, 2019).
